From PubChem BioAssay (NCI)
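Cells were grown in 96-well plates and exposed to each compound for 48 hours at five concentrations; endpoints were interpolated linearly between bracketing concentrations, or set to the highest concentration if not reached. Definition used: TGI = concentration required for complete inhibition of growth.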

Tests used:
Assay in all cases: NCI tumour cell line growth inhibition, 48 h
786-0 renal = system: 786-0 renal
A498 renal = system: A498 renal
A549 NSCLC = system: A549 NSCLC
ACHN renal = system: ACHN renal
CAKI-1 renal = system: CAKI-1 renal
CCRF-CEM leukemia = system: CCRF-CEM leukemia
COLO 205 colon = system: COLO 205 colon
DLD-1 colon = system: DLD-1 colon
DMS 114 small cell lung = system: DMS 114 small cell lung
DMS 273 small cell lung = system: DMS 273 small cell lung
EKVX NSCLC = system: EKVX NSCLC
HCC-2998 colon = system: HCC-2998 colon
HCT-116 colon = system: HCT-116 colon
HCT-15 colon = system: HCT-15 colon
HL-60(TB) leukemia = system: HL-60(TB) leukemia
HOP-62 NSCLC = system: HOP-62 NSCLC
HOP-92 NSCLC = system: HOP-92 NSCLC
HT29 colon = system: HT29 colon
IGROV1 ovarian = system: IGROV1 ovarian
K-562 leukemia = system: K-562 leukemia
KM12 colon = system: KM12 colon
KM20L2 colon = system: KM20L2 colon
LOX IMVI melanoma = system: LOX IMVI melanoma
LXFL 529 NSCLC = system: LXFL 529 NSCLC
M14 melanoma = system: M14 melanoma
M19-MEL melanoma = system: M19-MEL melanoma
MALME-3M melanoma = system: MALME-3M melanoma
MOLT-4 leukemia = system: MOLT-4 leukemia
NCI-H226 lung = system: NCI-H226 lung
NCI-H23 lung = system: NCI-H23 lung
NCI-H460 lung = system: NCI-H460 lung
NCI-H522 lung = system: NCI-H522 lung
OVCAR-3 ovarian = system: OVCAR-3 ovarian
OVCAR-4 ovarian = system: OVCAR-4 ovarian
OVCAR-5 ovarian = system: OVCAR-5 ovarian
OVCAR-8 ovarian = system: OVCAR-8 ovarian
RPMI-8226 leukemia = system: RPMI-8226 leukemia
RXF 393 renal = system: RXF 393 renal
RXF-631 renal = system: RXF-631 renal
SF-268 CNS = system: SF-268 CNS
SF-295 CNS = system: SF-295 CNS
SF-539 CNS = system: SF-539 CNS
SK-MEL-2 melanoma = system: SK-MEL-2 melanoma
SK-MEL-28 melanoma = system: SK-MEL-28 melanoma
SK-MEL-5 melanoma = system: SK-MEL-5 melanoma
SK-OV-3 ovarian = system: SK-OV-3 ovarian
SN12C renal = system: SN12C renal
SNB-19 CNS = system: SNB-19 CNS
SNB-75 CNS = system: SNB-75 CNS
SNB-78 CNS = system: SNB-78 CNS
SR leukemia = system: SR leukemia
SW-620 colon = system: SW-620 colon
TK-10 renal = system: TK-10 renal
U251 CNS = system: U251 CNS
UACC-257 melanoma = system: UACC-257 melanoma
UO-31 renal = system: UO-31 renal
XF 498 CNS = system: XF 498 CNS
HOP-18 NSCLC = system: HOP-18 NSCLC
UACC-62 melanoma = system: UACC-62 melanoma

CC(C)C12C=CC(C)(CC1)n1c(=O)c3cc4ccccc4cc3c(=O)n12 (stereo not given)
TGI (786-0 renal): > 100 µM | TGI (A498 renal): 79.1 µM | TGI (A549 NSCLC): > 100 µM | TGI (ACHN renal): > 100 µM | TGI (CAKI-1 renal): > 100 µM | TGI (CCRF-CEM leukemia): > 100 µM | TGI (COLO 205 colon): > 100 µM | TGI (DLD-1 colon): > 100 µM | TGI (DMS 114 small cell lung): > 100 µM | TGI (DMS 273 small cell lung): > 100 µM | TGI (EKVX NSCLC): > 100 µM | TGI (HCC-2998 colon): > 100 µM | TGI (HCT-116 colon): > 100 µM | TGI (HCT-15 colon): > 100 µM | TGI (HL-60(TB) leukemia): > 100 µM | TGI (HOP-62 NSCLC): > 100 µM | TGI (HOP-92 NSCLC): > 100 µM | TGI (HT29 colon): > 100 µM | TGI (IGROV1 ovarian): > 100 µM | TGI (K-562 leukemia): > 100 µM | TGI (KM12 colon): > 100 µM | TGI (KM20L2 colon): > 100 µM | TGI (LOX IMVI melanoma): > 100 µM | TGI (LXFL 529 NSCLC): > 100 µM | TGI (M14 melanoma): > 100 µM | TGI (M19-MEL melanoma): > 100 µM | TGI (MALME-3M melanoma): > 100 µM | TGI (MOLT-4 leukemia): > 100 µM | TGI (NCI-H226 lung): > 100 µM | TGI (NCI-H23 lung): > 100 µM | TGI (NCI-H460 lung): > 100 µM | TGI (NCI-H522 lung): 83.7 µM | TGI (OVCAR-3 ovarian): > 100 µM | TGI (OVCAR-4 ovarian): > 100 µM | TGI (OVCAR-5 ovarian): > 100 µM | TGI (OVCAR-8 ovarian): > 100 µM | TGI (RPMI-8226 leukemia): > 100 µM | TGI (RXF 393 renal): > 100 µM | TGI (RXF-631 renal): > 100 µM | TGI (SF-268 CNS): > 100 µM | TGI (SF-295 CNS): > 100 µM | TGI (SF-539 CNS): > 100 µM | TGI (SK-MEL-2 melanoma): > 100 µM | TGI (SK-MEL-28 melanoma): > 100 µM | TGI (SK-MEL-5 melanoma): > 100 µM | TGI (SK-OV-3 ovarian): > 100 µM | TGI (SN12C renal): > 100 µM | TGI (SNB-19 CNS): > 100 µM | TGI (SNB-75 CNS): > 100 µM | TGI (SNB-78 CNS): > 100 µM | TGI (SR leukemia): > 100 µM | TGI (SW-620 colon): > 100 µM | TGI (TK-10 renal): 94 µM | TGI (U251 CNS): > 100 µM | TGI (UACC-257 melanoma): > 100 µM | TGI (UO-31 renal): 96.6 µM | TGI (XF 498 CNS): > 100 µM

COC(=O)c1cc(-c2cccn2C)c2c(c1C(=O)OC)c1ccccc1n2C
TGI (786-0 renal): > 100 µM | TGI (A549 NSCLC): > 100 µM | TGI (ACHN renal): > 100 µM | TGI (COLO 205 colon): > 100 µM | TGI (DLD-1 colon): > 100 µM | TGI (DMS 114 small cell lung): > 100 µM | TGI (DMS 273 small cell lung): > 100 µM | TGI (HCC-2998 colon): > 100 µM | TGI (HCT-15 colon): > 100 µM | TGI (HL-60(TB) leukemia): > 100 µM | TGI (HOP-18 NSCLC): > 100 µM | TGI (HOP-92 NSCLC): > 100 µM | TGI (HT29 colon): > 100 µM | TGI (IGROV1 ovarian): > 100 µM | TGI (K-562 leukemia): > 100 µM | TGI (KM12 colon): > 100 µM | TGI (LOX IMVI melanoma): > 100 µM | TGI (LXFL 529 NSCLC): > 100 µM | TGI (M14 melanoma): > 100 µM | TGI (MALME-3M melanoma): > 100 µM | TGI (MOLT-4 leukemia): 29.3 µM | TGI (NCI-H23 lung): > 100 µM | TGI (NCI-H460 lung): > 100 µM | TGI (NCI-H522 lung): 80.9 µM | TGI (OVCAR-3 ovarian): > 100 µM | TGI (OVCAR-4 ovarian): > 100 µM | TGI (OVCAR-8 ovarian): > 100 µM | TGI (RPMI-8226 leukemia): > 100 µM | TGI (RXF 393 renal): > 100 µM | TGI (RXF-631 renal): > 100 µM | TGI (SF-295 CNS): > 100 µM | TGI (SF-539 CNS): > 100 µM | TGI (SK-MEL-2 melanoma): > 100 µM | TGI (SK-MEL-28 melanoma): > 100 µM | TGI (SK-MEL-5 melanoma): > 100 µM | TGI (SK-OV-3 ovarian): > 100 µM | TGI (SN12C renal): > 100 µM | TGI (SNB-19 CNS): > 100 µM | TGI (SNB-75 CNS): > 100 µM | TGI (SNB-78 CNS): > 100 µM | TGI (SR leukemia): > 100 µM | TGI (SW-620 colon): > 100 µM | TGI (TK-10 renal): > 100 µM | TGI (U251 CNS): > 100 µM | TGI (UACC-257 melanoma): > 100 µM | TGI (UACC-62 melanoma): > 100 µM | TGI (UO-31 renal): > 100 µM | TGI (XF 498 CNS): > 100 µM
